Source: US20140213575A1, “6H-Thieno[3,2-f][1,2,4]triazolo[4,3-a][1,4]diazepines” (BAYER INTELLECTUAL PROPERTY GMBH, priority 2011, published 2014)

Assays:
BRD4(1) = biological target: T1, BRD4(1) (Homo sapiens, UniProt O60885); assay: Binding assay BRD4/acetylated peptide H4 (TR-FRET/HTRF protein-protein interaction assay); settings: inhibition of interaction BRD4(1) / acetylated histone H4 peptide, TR-FRET
T1 construct: BRD4(1) (amino acids 44-168); made in house; host or cells: E. coli
From the text: Binding Assay BRD4/Acetylated Peptide H4 (“PRQ”)
To assess the BRD4 binding strength of the substances described in this application, their capacity for dose-dependent inhibition of the interaction between BRD4 and acetylated histone H4 was quantified.
For this purpose, a time-resolved fluorescence resonance energy transfer (TR-FRET) assay was used, which measures the binding between N-terminally His6-tagged BRD4(1) (amino acids 44-168) and a synthetic acetylated histone H4 (Ac-H4) peptide with the sequence GRGK(Ac)GGK(Ac)GLGK(Ac)GGAK(Ac)RHGSGSK-biotin. The recombinant BRD4 protein (produced in-house) was expressed in E. coli and was purified by (Ni-NTA) affinity chromatography and (Sephadex G-75) size-exclusion chromatography. The Ac-H4 peptide can be purchased for example from Biosyntan (Berlin, Germany).
In the assay, typically 11 different concentrations of each substance (0.1 nM, 0.33 nM, 1.1 nM, 3.8 nM, 13 nM, 44 nM, 0.15 μM, 0.51 μM, 1.7 μM, 5.9 μM and 20 μM) were measured as duplicates on the same microtitre plate. For this, 100-fold concentrated solutions in DMSO were prepared by serial dilutions (1:3.4) of a 2 mM stock solution in a clear, 384-well microtitre plate (Greiner Bio-One, Frickenhausen, Germany). From this, 50 nl was transferred to a black assay plate (Greiner Bio-One, Frickenhausen, Germany). The assay was started by supplying 2 μl of a 2.5-fold concentrated BRD4 solution (usually 10 to 50 nM final concentration in the 5 μl of the reaction volume) in aqueous assay buffer [50 mM HEPES pH 7.5, 50 mM sodium chloride (NaCl), 0.25 mM CHAPS and 0.05% serum albumin (BSA)] to the substances in the assay plate. This was followed by a 10-minute incubation step at 22° C. for the pre-equilibration of putative complexes between BRD4 and the substances.
The mixture was then incubated in the dark for one hour at 22° C. and then overnight at 4° C. The formation of BRD4/Ac-H4 complexes was determined by measuring the resonance energy transfer from the streptavidin-Eu-cryptate to the anti-6His-XL665 antibody that is present in the reaction. For this, the fluorescence emissions at 620 nm and 665 nm were measured after excitation at 330-350 nm in a TR-FRET measuring instrument, e.g. a Rubystar or Pherastar (both from BMG Lab Technologies, Offenburg, Germany) or a Viewlux (Perkin-Elmer). The ratio of the emissions at 665 nm and at […] was taken as an indicator of the amount of BRD4/Ac-H4 complexes formed.
The data obtained (ratio) were normalized, wherein 0% inhibition corresponded to the mean value from the measured values of a set of controls (usually 32 data points), in which all reagents were contained. 50 nl DMSO (100%) was used instead of test substances. Inhibition of 100% corresponded to the mean value from the measured values of a set of controls (usually 32 data points), in which all reagents except BRD4 were contained. The IC50 value was determined by regression analysis based on a 4-parameter equation (minimum, maximum, IC50, Hill; Y=Max+(Min−Max)/(1+(X/IC50)^Hill)) using Bayer's own analysis software.

LNCaP cells = assay: Cellular proliferation assay (alamarBlue) LNCaP; format: cell-based; settings: Homo sapiens, 168 hours, read-out: Prostate LNCaP IC50
Protocol: (§1) In accordance with the invention, the ability of the substances to inhibit the proliferation of various cell lines was determined. Cell viability was determined by means of the alamarBlue® reagent (Invitrogen). […] After incubation overnight at 37° C., the fluorescence values were determined (CI values). […] Then the fluorescence values were determined (CO values).
(§2) The substances were investigated in the cell lines in Table 1, which for example represent the stated indications: […]

MCF-7 cells = assay: Cellular proliferation assay (alamarBlue) MCF-7; format: cell-based; settings: Homo sapiens, MCF7, 96 hours, read-out: Breast MCF-7 IC50
Protocol: as §1, §2

plasma proteins = assay: Plasma protein binding by equilibrium dialysis; format: in vitro ADME, mouse; settings: for fu: free fraction of the species investigated (mouse), as used in Table 6; for fraction unbound: mouse, plasma, free (unbound) fraction, equilibrium dialysis, read-out: Protein binding, given as % fu
Protocol: The binding of test substances to plasma proteins is determined by equilibrium dialysis by means of the Ht-dialysis apparatus (96-well) made of Teflon and a semipermeable membrane (regenerated cellulose, MWCO 12-14K). This separates 150 μl of each of a plasma side and a buffer side (50 mM phosphate buffer). The test substance is added in 2 concentrations (usually 3 and 0.3 μM) to the plasma side and binds to plasma proteins. The unbound fraction of the test substance passes through the membrane and is distributed on either side until equilibrium is established (after approx. 6-8 h at 37° C.). The substance concentration on the buffer side and the plasma side is determined by LC-MS analysis. For this, both sides are brought by dilution with buffer or plasma to the same matrix (10% plasma) and then precipitated with methanol. The free (unbound) fraction (fu) is calculated from the quotient of the buffer and plasma concentration. Stability tests and recovery tests are run concurrently as controls. In addition, the substance in buffer is dialysed against buffer, to check the nonspecific binding to apparatus and membrane and establishment of equilibrium. Because during incubation the osmotic pressure of the plasma proteins leads to dilution of the plasma (volume shift), this possible error is determined by weighing blank plasma samples and is included in the calculation of fu. Establishment of equilibrium and plasma stability should have a value not lower than 80% and the recovery should be at least 30%. A free fraction of <1% is regarded as high, between 1 and 10% as moderate and >10% as low plasma protein binding.

[1] = In-vivo tolerability in the mouse; parameters: species or system female NMRI nude mice; settings: for MTD / MTD at 5 days: female, NMRI nude, mouse, in vivo, oral; for MTD: once daily, read-out: maximum tolerated treatment dose (MTD), single daily treatment; for MTD at 5 days: twice daily, after 5 days of treatment, read-out: maximum tolerated treatment dose (MTD), twice daily administration; for Drug-induced deaths (day): 3 animals per group; for tolerability at all doses tested: treatment once or twice daily
Protocol: The substances were formulated in NMP/PEG300 (1/9 V/V). They were administered orally, in an amount of 10 ml/kg, once or twice daily for a period of 5 to 7 days to female NMRI nude mice (6-8 weeks old; 3 animals per group). Body weight and mortality of the mice were monitored daily up to the end of the study. Toxicity was defined as follows: ≧10% substance-induced deaths or ≧20% weight loss.

[2] = oral 50 mg/kg, QD × 5, once daily
[3] = oral 50 mg/kg, QD × 5, twice daily
[4] = oral 100 mg/kg, QD × 5, once daily
[5] = oral 100 mg/kg, QD × 5, twice daily
[6] = oral 200 mg/kg, QD × 5, once daily

SMILES	IC50 (BRD4(1)) [nM]	IC50 (LNCaP cells) [nM]	IC50 (MCF-7 cells) [nM]	fu (plasma proteins) [%]	fraction unbound (plasma proteins)	MTD [1] [mg/kg]	MTD at 5 days [1] [mg/kg]	% maximum body weight change (day) [1, 2]	Remarks (tolerability) [1, 2]	Drug-induced deaths (day) [1, 2]	% maximum body weight change (day) [1, 3]	Remarks (tolerability) [1, 3]	Drug-induced deaths (day) [1, 3]	% maximum body weight change (day) [1, 4]	Remarks (tolerability) [1, 4]	Drug-induced deaths (day) [1, 4]	% maximum body weight change (day) [1, 5]	Remarks (tolerability) [1, 5]	Drug-induced deaths (day) [1, 5]	% maximum body weight change (day) [1, 6]	further results
Cc1sc2c(c1C)C(c1ccc(Cl)cc1)=N[C@@H](CC(=O)N1C3CCC1CC(=O)C3)c1nnc(C)n1-2 [Example 1, 8-{2-[(S)-4-(4-Chlorophenyl)-2,3,9-trimethyl-6H-thieno[3,2-f][1,2,4]triazolo[4,3-a][1,4]diazepin-6-yl]acetyl}-8-azabicyclo[3.2.1]octan-3-one]	28	90	146	12	0.12	≥ 200	≥ 100	+7 (6) %	tolerated	0/3	+5 (4) %	tolerated	0/3	+6 (6) %	tolerated	0/3	−1 (6) %	HDT tolerated	0/3	+5 (6) %	Remarks (tolerability) [1, 6]: HDT tolerated; Drug-induced deaths (day) [1, 6]: 0/3; tolerability at all doses tested [1]: well tolerated
Cc1sc2c(c1C)C(c1ccc(Cl)cc1)=N[C@@H](CC(=O)N1CC3(COC3)C1)c1nnc(C)n1-2 [Example 2, 2-[(S)-4-(4-Chlorophenyl)-2,3,9-trimethyl-6H-thieno[3,2-f][1,2,4]triazolo[4,3-a][1,4]diazepin-6-yl]-1-(2-oxa-6-azaspiro[3.3]hept-6-yl)ethan-1-one]	27	80	116	25	0.25	≥ 200	≥ 100	+5 (6) %	tolerated	0/3	+2 (6) %	tolerated	0/3	−1 (3) %	tolerated	0/3	−3 (5) %	HDT tolerated	0/3	+4 (4) %	Remarks (tolerability) [1, 6]: HDT tolerated; Drug-induced deaths (day) [1, 6]: 0/3; tolerability at all doses tested [1]: well tolerated
